Consider 16 molecules from patent publication US20240059703A1 (AMGEN INC., priority 2021, published 2024).

The test system of assay [1] is A549 (human lung carcinoma) cells. Nature of the assay: Cell Viability Assay (CellTiter-Glo), A549. It is filed as cell-based. The conditions noted are these: Homo sapiens, A549, 72 h. Put shortly: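 After a 72 h exposure to serial compound dilutions at 37° C, luminescent ATP content was measured with CellTiter-Glo. The cells were A549 or MIA PaCa-2, seeded at 1.67E+04 cells/mL in RPMI 1640 with 10% serum. Signals were normalized to DMSO controls and IC50 fitted with a 4-parameter logistic model.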

The target in assay [2] is KRAS G12C (Homo sapiens (Human), UniProt P01116, C118A/G12C). Nature of the assay: 2 h coupled exchange assay. It is filed as biochemical. The conditions noted are these: Avg 2 h Coupled exchange IC50, 2 h compound pre-incubation. As to the method:
The term “2 h coupled exchange assay” or “20 h coupled exchange assay” as used herein refers to the assay described in the Section entitled “BIOLOGICAL EVALUATION.”

Assay [3] deals with MIA PaCa-2 (human pancreatic carcinoma) cells. Nature of the assay: Cell Viability Assay (CellTiter-Glo), MIA PaCa-2. It counts as cell-based. On the procedure:
Serially-diluted compound or DMSO was added to the cells, and plates were incubated at 37° C., 5% CO2 for 72 h. Cell viability was measured using a CellTiter-Glo® Luminescent Cell Viability Assay kit (Promega) according to the manufacturer's protocol. The luminescence signal of treated samples was normalized to DMSO control, and data were analyzed using a 4-parameter logistic model to calculate IC50 values.
A general note: Cellular ATP, detected with luciferase, serves as a proxy for viable cell number.

Sequence of KRAS G12C (P01116 other isoform, or with tags, fused parts or gaps G12C/C118A): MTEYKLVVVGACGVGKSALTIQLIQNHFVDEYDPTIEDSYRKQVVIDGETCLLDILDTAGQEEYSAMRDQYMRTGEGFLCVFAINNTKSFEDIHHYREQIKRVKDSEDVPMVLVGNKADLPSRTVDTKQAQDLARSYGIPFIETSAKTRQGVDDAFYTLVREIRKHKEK

By IC50 is commonly meant the concentration at which inhibition is half-maximal. Lower therefore signals higher potency. For the molecule `C=CC(=O)N1CC2(CCN(c3nc4c(c(-c5ccccc5C)c3C#N)CCC(c3scnc3C)C4)C2)C1` [Example 23-2, (7R)-4-(2-methylphenyl)-7-(4-methyl-1,3-thiazol-5-yl)-2-(2-(2-propenoyl)-2,6-diazaspiro[3.4]octan-6-yl)-5,6,7,8-tetrahydro-3-quinolinecarbonitrile (7S)-4-(2-methylphenyl)-7-(4-methyl-1,3-thiazol-5-yl)-2-(2-(2-propenoyl)-2,6-diazaspiro[3.4]octan-6-yl)-5,6,7,8-tetrahydro-3-quinolinecarbonitrile], the IC50 in assay [1] came to 12600 nM; in assay [2], 26 nM; in assay [3] (Homo sapiens, MIA PaCa-2, 72 h), 164 nM.
In the case of `C=CC(=O)N1CC2(CCN(c3nc4c(c(-c5ccccc5F)c3C#N)CCC(c3scnc3C)=C4)C2)C1` [Example 23-7, 4-(2-fluorophenyl)-7-(4-methyl-1,3-thiazol-5-yl)-2-(2-(2-propenoyl)-2,6-diazaspiro[3.4]octan-6-yl)-5,6-dihydro-3-quinolinecarbonitrile], the IC50 in assay [1] was determined as 3690 nM; in assay [2], 72 nM; in assay [3] (Homo sapiens, MIA PaCa-2, 72 h) it was 918 nM.
The matching figures for `C=CC(=O)N1CC2(CCN(c3nc4c(c(-c5ccccc5F)c3C#N)COC(c3scnc3C)C4)C2)C1` [Example 23-8, (7R)-4-(2-fluorophenyl)-7-(4-methyl-1,3-thiazol-5-yl)-2-(2-(2-propenoyl)-2,6-diazaspiro[3.4]octan-6-yl)-7,8-dihydro-5H-pyrano[4,3-b]pyridine-3-carbonitrile(7S)-4-(2-fluorophenyl)-7-(4-methyl-1,3-thiazol-5-yl)-2-(2-(2-propenoyl)-2,6-diazaspiro[3.4]octan-6-yl)-7,8-dihydro-5H-pyrano[4,3-b]pyridine-3-carbonitrile]: more than 5000 nM, 169 nM and 2240 nM.
For `C=CC(=O)N1CC2(CCN(c3nc4c(c(-c5ncccc5C)c3C#N)CC[C@](C)(c3scnc3C)C4)C2)C1` [Example 23-9, (7S)-7-methyl-4-(3-methyl-2-pyridinyl)-7-(4-methyl-1,3-thiazol-5-yl)-2-(2-(2-propenoyl)-2,6-diazaspiro[3.4]octan-6-yl)-5,6,7,8-tetrahydro-3-quinolinecarbonitrile], in that order: 16200 nM, 531 nM and 916 nM.
Take `C=CC(=O)N1CC2(CCN(c3nc4c(c(-c5ncccc5C)c3C#N)CC[C@@](C)(c3scnc3C)C4)C2)C1` [Example 23-10, (7R)-7-methyl-4-(3-methyl-2-pyridinyl)-7-(4-methyl-1,3-thiazol-5-yl)-2-(2-(2-propenoyl)-2,6-diazaspiro[3.4]octan-6-yl)-5,6,7,8-tetrahydro-3-quinolinecarbonitrile]: the IC50 in assay [1] is more than 5000 nM; in assay [2], 200 nM; in assay [3] (Homo sapiens, MIA PaCa-2, 72 h), 478 nM.
Consider `C=CC(=O)N1CC2(CCN(c3nc4c(c(-c5ccccc5C)c3C#N)CCC(c3scnc3C)=C4)C2)C1` [Example 23-11, 4-(2-methylphenyl)-7-(4-methyl-1,3-thiazol-5-yl)-2-(2-(2-propenoyl)-2,6-diazaspiro[3.4]octan-6-yl)-5,6-dihydro-3-quinolinecarbonitrile], for which the IC50 in assay [1] is more than 5000 nM; in assay [2], 53 nM; in assay [3] (Homo sapiens, MIA PaCa-2, 72 h) it was 637 nM.
In the case of `C=CC(=O)N1CC2(CCN(c3nc4c(c(-c5ccccc5F)c3C#N)CC[C@](C)(c3scnc3C)C4)C2)C1` [Example 23-12, (7S)-4-(2-fluorophenyl)-7-methyl-7-(4-methyl-1,3-thiazol-5-yl)-2-(2-(2-propenoyl)-2,6-diazaspiro[3.4]octan-6-yl)-5,6,7,8-tetrahydro-3-quinolinecarbonitrile], the IC50 amounted to 4070 nM in assay [1]; 108 nM in assay [2]; 754 nM in assay [3] (Homo sapiens, MIA PaCa-2, 72 h).
For `C=CC(=O)N1CC2(CCN(c3nc4c(c(-c5ccccc5F)c3C#N)CC[C@@](C)(c3scnc3C)C4)C2)C1` [Example 23-13, (7R)-4-(2-fluorophenyl)-7-methyl-7-(4-methyl-1,3-thiazol-5-yl)-2-(2-(2-propenoyl)-2,6-diazaspiro[3.4]octan-6-yl)-5,6,7,8-tetrahydro-3-quinolinecarbonitrile], in that order: more than 5000 nM, 39 nM and 911 nM.
On to `C=CC(=O)N1CC2(CCN(c3nc4c(c(-c5ncccc5C)c3C#N)COC(c3scnc3C)C4)C2)C1` [Example 23-14, (7R)-4-(3-methyl-2-pyridinyl)-7-(4-methyl-1,3-thiazol-5-yl)-2-(2-(2-propenoyl)-2,6-diazaspiro[3.4]octan-6-yl)-7,8-dihydro-5H-pyrano[4,3-b]pyridine-3-carbonitrile (7S)-4-(3-methyl-2-pyridinyl)-7-(4-methyl-1,3-thiazol-5-yl)-2-(2-(2-propenoyl)-2,6-diazaspiro[3.4]octan-6-yl)-7,8-dihydro-5H-pyrano[4,3-b]pyridine-3-carbonitrile], for which the IC50 was more than 25000 nM in assay [1]; 802 nM in assay [2]; 1310 nM in assay [3] (Homo sapiens, MIA PaCa-2, 72 h).
Turning to `C=CC(=O)N1CC2(CCN(c3nc4c(c(-c5ccccc5Cl)c3C#N)COC(c3scnc3C)C4)C2)C1` [Example 23-15, (7R)-4-(2-chlorophenyl)-7-(4-methyl-1,3-thiazol-5-yl)-2-(2-(2-propenoyl)-2,6-diazaspiro[3.4]octan-6-yl)-7,8-dihydro-5H-pyrano[4,3-b]pyridine-3-carbonitrile (7S)-4-(2-chlorophenyl)-7-(4-methyl-1,3-thiazol-5-yl)-2-(2-(2-propenoyl)-2,6-diazaspiro[3.4]octan-6-yl)-7,8-dihydro-5H-pyrano[4,3-b]pyridine-3-carbonitrile], the IC50 is more than 5000 nM in assay [1]; 196 nM in assay [2]; 972 nM in assay [3] (Homo sapiens, MIA PaCa-2, 72 h).
`C=CC(=O)N1CC2(CCN(c3nc4c(c(-c5ccc(F)cc5F)c3C#N)COC(c3scnc3C)C4)C2)C1` [Example 23-17, (7R)-4-(2,4-difluorophenyl)-7-(4-methyl-1,3-thiazol-5-yl)-2-(2-(2-propenoyl)-2,6-diazaspiro[3.4]octan-6-yl)-7,8-dihydro-5H-pyrano[4,3-b]pyridine-3-carbonitrile (7S)-4-(2,4-difluorophenyl)-7-(4-methyl-1,3-thiazol-5-yl)-2-(2-(2-propenoyl)-2,6-diazaspiro[3.4]octan-6-yl)-7,8-dihydro-5H-pyrano[4,3-b]pyridine-3-carbonitrile]: the IC50 in assay [1] is more than 5000 nM; in assay [2], 98 nM; in assay [3] (Homo sapiens, MIA PaCa-2, 72 h) it was 707 nM.
As to `C=CC(=O)N1CC2(CCN(c3nc4c(c(-c5ccc(F)cc5Cl)c3C#N)CCC(c3scnc3C)=C4)C2)C1` [Example 23-18, 4-(2-chloro-4-fluorophenyl)-7-(4-methyl-1,3-thiazol-5-yl)-2-(2-(2-propenoyl)-2,6-diazaspiro[3.4]octan-6-yl)-5,6-dihydro-3-quinolinecarbonitrile], the results for the half-maximal inhibitory concentration (IC50) in assay [1], in assay [2] and in assay [3] (72 h) were 2880 nM, 104 nM and 591 nM, respectively.
Consider `C=CC(=O)N1CC2(CCN(c3nc4c(c(-c5ccccc5Cl)c3C#N)CCC(c3scnc3C)=C4)C2)C1` [Example 23-19, 4-(2-chlorophenyl)-7-(4-methyl-1,3-thiazol-5-yl)-2-(2-(2-propenoyl)-2,6-diazaspiro[3.4]octan-6-yl)-5,6-dihydro-3-quinolinecarbonitrile], for which the IC50 stood at 3290 nM in assay [1]; 87 nM in assay [2]; 537 nM in assay [3] (Homo sapiens, MIA PaCa-2, 72 h).
For `C=CC(=O)N1CC2(CCN(c3nc4c(c(-c5ccc(F)cc5Cl)c3C#N)COC(c3scnc3C)C4)C2)C1` [Example 23-20, (7R)-4-(2-chloro-4-fluorophenyl)-7-(4-methyl-1,3-thiazol-5-yl)-2-(2-(2-propenoyl)-2,6-diazaspiro[3.4]octan-6-yl)-7,8-dihydro-5H-pyrano[4,3-b]pyridine-3-carbonitrile (7S)-4-(2-chloro-4-fluorophenyl)-7-(4-methyl-1,3-thiazol-5-yl)-2-(2-(2-propenoyl)-2,6-diazaspiro[3.4]octan-6-yl)-7,8-dihydro-5H-pyrano[4,3-b]pyridine-3-carbonitrile], in that order: 8250 nM, 227 nM and 1150 nM.
The matching figures for `C=CC(=O)N1CC2(CCN(c3nc4c(c(-c5ccc(F)cc5F)c3C#N)CCC(c3scnc3C)=C4)C2)C1` [Example 23-21, 4-(2,4-difluorophenyl)-7-(4-methyl-1,3-thiazol-5-yl)-2-(2-(2-propenoyl)-2,6-diazaspiro[3.4]octan-6-yl)-5,6-dihydro-3-quinolinecarbonitrile]: 3780 nM, 74 nM and 714 nM.
For `C=CC(=O)N1CC2(CCN(c3nc4c(c(-c5c(F)cccc5Cl)c3C#N)CCC(c3scnc3C)=C4)C2)C1` [Example 23-22, 4-(2-chloro-6-fluorophenyl)-7-(4-methyl-1,3-thiazol-5-yl)-2-(2-(2-propenoyl)-2,6-diazaspiro[3.4]octan-6-yl)-5,6-dihydro-3-quinolinecarbonitrile], in that order: more than 5000 nM, 182 nM and 725 nM.
